According to the OPERA property sets (Mansouri et al. 2018):
≈ marks a conversion by molar mass, not a printed value.

Settings: not given

| Compound | solubility [mM] |
| --- | --- |
| O=C(O)c1cc(Cl)cc(Cl)c1 | 0.77 (≈ 147 µg/mL) |
| c1ccc2c(c1)-c1cccc3c1c-2cc1ccccc13 | 5.94e-06 (≈ 0.0015 µg/mL) |
| CC1=C2[C@H]3OC(=O)[C@@H](C)[C@@H]3CC[C@@]2(C)C=CC1=O | 0.812 (≈ 200 µg/mL) |
| Cc1cc(C)c(N)cc1C | 11.1 (≈ 1500 µg/mL) |
| O=C(O)c1c(O)cccc1O | 62 (≈ 9560 µg/mL) |
| O=C(O)c1c(Cl)cccc1Cl | 74 (≈ 14100 µg/mL) |
| CN(C)C(=O)OC1=CC(=O)CC(C)(C)C1 | 142 (≈ 30000 µg/mL) |
| O=C(O)c1ccc(Cl)c(Cl)c1 | 0.32 (≈ 61.1 µg/mL) |
| CC1CCC(C)O1 (stereo unspecified) | 1180 (≈ 118000 µg/mL) |
| Cc1cc(C)c(C)c(C)c1C | 0.105 (≈ 15.5 µg/mL) |
| Cc1cc(NS(=O)(=O)c2ccc(N)cc2)nc(C)n1 | 5.79 (≈ 1610 µg/mL) |

Same assay, conditions: 20 °C

| Compound | solubility [mM] |
| --- | --- |
| Nc1ccccc1C(=O)O | 25.5 (≈ 3500 µg/mL) |
| C=CC1CN2CCC1CC2C(=O)c1ccnc2ccc(OC)cc12 (stereo unspecified) | 0.0093 (≈ 3 µg/mL) |
| NCCS(=O)(=O)O | 645 (≈ 80700 µg/mL) |
| C[C@@]12C(=O)OC(=O)[C@]1(C)C1CCC2O1 | 0.153 (≈ 30 µg/mL) |
| c1ccc2c(c1)ccc1c2ccc2c3ccccc3ccc21 | 1.55e-05 (≈ 0.00431 µg/mL) |
| CNC(=O)Nc1nc2ccccc2s1 | 0.0579 (≈ 12 µg/mL) |
| N[C@H](CCCC(=O)O)C(=O)O | 13.7 (≈ 2200 µg/mL) |
| Nc1cnn(-c2ccccc2)c(=O)c1Cl | 1.8 (≈ 400 µg/mL) |
| CCOP(=S)(OCC)Oc1ccc(S(C)=O)cc1 (stereo unspecified) | 6.49 (≈ 2000 µg/mL) |
| Clc1ccc(-c2ccc(Cl)c(Cl)c2)c(Cl)c1 | 0.000126 (≈ 0.0368 µg/mL) |
| Clc1cc(-c2cccc(Cl)c2Cl)cc(Cl)c1Cl | 3.93e-05 (≈ 0.0128 µg/mL) |
| Oc1cc(O)ncn1 | 22.3 (≈ 2500 µg/mL) |
| CC1CCCC(=O)C1 (stereo unspecified) | 13.4 (≈ 1500 µg/mL) |
| CCC1CCCCC1 | 0.0561 (≈ 6.3 µg/mL) |
| CCSc1nc(NC(C)C)nc(NC(C)C)n1 | 0.0626 (≈ 16 µg/mL) |
| COC(=O)C(C)N(C(=O)c1ccco1)c1c(C)cccc1C (stereo unspecified) | 0.763 (≈ 230 µg/mL) |
| CC(C)(O)C(Cl)(Cl)Cl | 45.1 (≈ 8000 µg/mL) |
| CCCCOC(=O)C(C)O (stereo unspecified) | 274 (≈ 40000 µg/mL) |
| Clc1ccc(Cl)c(-c2cccc(Cl)c2Cl)c1 | 0.000342 (≈ 0.1 µg/mL) |
| C[C@H](CCC(=O)NCC(=O)O)[C@H]1CC[C@H]2[C@@H]3[C@H](O)C[C@@H]4C[C@H](O)CC[C@]4(C)[C@H]3C[C@H](O)[C@]12C | 0.00709 (≈ 3.3 µg/mL) |

| Compound | solubility [mM] |
| --- | --- |
| Oc1ccc2c(c1)CCCC2 | 10.1 (≈ 1500 µg/mL) |
| OCCOc1ccccc1 | 193 (≈ 26700 µg/mL) |
| Nc1ccc2cc3ccc(N)cc3nc2c1 | 2390 (≈ 500000 µg/mL) |
| O=C(O)c1cnc(O)nc1O | 11.5 (≈ 1800 µg/mL) |
| OCCN(CCO)c1ccccc1 | 184 (≈ 33400 µg/mL) |
| O=C1C[C@@H](c2ccc(O)c(O)c2)Oc2cc(O)cc(O)c21 | 0.243 (≈ 70 µg/mL) |
| O=C(O)C1(O)c2ccccc2-c2ccc(Cl)cc21 (stereo unspecified) | 0.076 (≈ 19.8 µg/mL) |
| CNCC(=O)O | 3370 (≈ 300000 µg/mL) |
| N#CCC(N)=O | 1550 (≈ 130000 µg/mL) |
| Clc1cc2c(cc1Cl)Oc1c(Cl)c(Cl)c(Cl)c(Cl)c1O2 | 1.13e-08 (≈ 4.4e-06 µg/mL) |
| Clc1ccc(-c2c(Cl)cc(Cl)c(Cl)c2Cl)c(Cl)c1 | 3.37e-05 (≈ 0.0122 µg/mL) |
| CC(CCl)OC(C)CCl (stereo unspecified) | 9.94 (≈ 1700 µg/mL) |
| Oc1cccc2cccnc12 | 3.83 (≈ 556 µg/mL) |
| Clc1ccc(-c2cc(Cl)ccc2Cl)c(Cl)c1 | 0.000267 (≈ 0.0781 µg/mL) |
| CCCCCC(=O)OC | 10.2 (≈ 1330 µg/mL) |
| O=C(O)Cn1c(=O)sc2cccc(Cl)c21 | 2.46 (≈ 600 µg/mL) |
| CCCCNC(=O)n1c(NC(=O)OC)nc2ccccc21 | 0.0131 (≈ 3.8 µg/mL) |
| O=[N+]([O-])c1cc(Cl)c(Cl)c(Cl)c1Cl | 0.028 (≈ 7.3 µg/mL) |
| O=C1NC(=O)C2C3C(C(O)(c4ccccc4)c4ccccn4)=CC(C3=C(c3ccccc3)c3ccccn3)C12 (stereo unspecified) | 0.117 (≈ 60 µg/mL) |
| CCCCCCCCCCCCC(=O)O | 0.154 (≈ 33 µg/mL) |

Same assay, conditions: 21 °C

| Compound | solubility [mM] |
| --- | --- |
| NC(=S)c1c(Cl)cccc1Cl | 4.61 (≈ 950 µg/mL) |

Same assay, conditions: 22 °C

| Compound | solubility [mM] |
| --- | --- |
| O=C(c1ccccc1)c1c(O)cc(O)cc1O | 13.5 (≈ 3100 µg/mL) |
| Cc1cc(=O)[nH]c(=O)[nH]1 | 55.5 (≈ 7000 µg/mL) |
| OC[C@@H](O)[C@@H](O)CO | 4990 (≈ 610000 µg/mL) |
| CCSC(=O)N(CC(C)C)CC(C)C | 0.207 (≈ 45 µg/mL) |
| COC(=O)[C@@H]1C2CCC(C[C@@H]1OC(=O)c1ccccc1)N2C (stereo partly specified) | 5.93 (≈ 1800 µg/mL) |

Same assay, conditions: 23 °C

| Compound | solubility [mM] |
| --- | --- |
| O=C(O)[C@@H](CO)c1ccccc1 | 119 (≈ 19800 µg/mL) |
| Nc1nc(N)[nH]c(=O)n1 | 0.59 (≈ 75 µg/mL) |
| O=C1C(Cl)=C(NC(=O)C(Cl)Cl)C(=O)c2ccccc21 | 0.00942 (≈ 3 µg/mL) |
| C[C@]12CC[C@@H](O)C[C@@H]1CC[C@@H]1[C@@H]2CC[C@]2(C)C(=O)CC[C@@H]12 | 0.0461 (≈ 13.4 µg/mL) |
| COP(=O)(OC)OC1=C(Cl)C2C=CCC12 (stereo unspecified) | 9.97 (≈ 2500 µg/mL) |

Same assay, conditions: 24 °C

| Compound | solubility [mM] |
| --- | --- |
| Nc1cccc2nc3ccccc3cc12 | 0.06 (≈ 11.7 µg/mL) |
| O=C(O)c1c2ccccc2cc2ccccc12 | 0.382 (≈ 85 µg/mL) |
| CCNP(=S)(OC)O/C(C)=C/C(=O)OC(C)C (stereo unspecified) | 0.391 (≈ 110 µg/mL) |
| CN(C)CCC=C1c2ccccc2CCc2ccccc21 | 0.035 (≈ 9.71 µg/mL) |

Same assay, conditions: 25 °C

| Compound | solubility [mM] |
| --- | --- |
| O=c1cc[nH]c(=O)[nH]1 | 32.1 (≈ 3600 µg/mL) |
| CCCCCCCC | 0.00578 (≈ 0.66 µg/mL) |
| C#CCC | 53.1 (≈ 2870 µg/mL) |
| COc1ccc2c(c1)N(C[C@H](C)CN(C)C)c1ccccc1S2 | 0.0609 (≈ 20 µg/mL) |
| CCCN(CCC)CCC | 5.22 (≈ 748 µg/mL) |
| CC(C)(C)C(=O)OCC(=O)[C@@]1(O)CC[C@H]2[C@@H]3CCC4=CC(=O)C=C[C@]4(C)[C@H]3[C@@H](O)C[C@@]21C | 0.0261 (≈ 11.6 µg/mL) |
| Fc1cc(F)c(F)c(F)c1 | 4.95 (≈ 742 µg/mL) |
| OC(c1ccccc1)(c1ccccc1)c1ccccc1 | 5.5 (≈ 1430 µg/mL) |
| C1CCCCCC1 | 0.306 (≈ 30 µg/mL) |
| O=C(O)c1cc(Cl)ccc1[N+](=O)[O-] | 48 (≈ 9670 µg/mL) |
